Experimental data: ChEMBL document CHEMBL4011590, “Structure-activity relationship studies on 3,5-dinitrophenyl tetrazoles as antitubercular agents” (Eur J Med Chem, 2017)
≈ marks a conversion by molar mass, not a printed value.

What was measured:
[1] = test system: Mycobacterium tuberculosis; assay: Antimycobacterial activity against Mycobacterium tuberculosis H37Rv CNCTC My 331/88 after 14 days by micromethod; format: functional; details: H37Rv CNCTC My 331/88, 336 h
[2] = test system: Mycobacterium tuberculosis; assay: Antimycobacterial activity against Mycobacterium tuberculosis H37Rv CNCTC My 331/88 after 21 days by micromethod; format: functional; details: H37Rv CNCTC My 331/88, 504 h
Mycobacterium kansasii [3] = assay: Antimycobacterial activity against Mycobacterium kansasii CNCTC My 235/80 after 7 days by micromethod; format: functional; details: CNCTC My 235/80, 168 h
Mycobacterium kansasii [4] = assay: Antimycobacterial activity against Mycobacterium kansasii CNCTC My 235/80 after 14 days by micromethod; format: functional; details: CNCTC My 235/80, 336 h
Mycobacterium kansasii [5] = assay: Antimycobacterial activity against Mycobacterium kansasii CNCTC My 235/80 after 21 days by micromethod; format: functional; details: CNCTC My 235/80, 504 h
Mycobacterium kansasii [6] = assay: Antimycobacterial activity against Mycobacterium kansasii isolate 6509/96 after 7 days by micromethod; format: functional; details: isolate 6509/96, 168 h
Mycobacterium kansasii [7] = assay: Antimycobacterial activity against Mycobacterium kansasii isolate 6509/96 after 14 days by micromethod; format: functional; details: isolate 6509/96, 336 h
Mycobacterium kansasii [8] = assay: Antimycobacterial activity against Mycobacterium kansasii isolate 6509/96 after 21 days by micromethod; format: functional; details: isolate 6509/96, 504 h
CHO-K1 = assay: Cytotoxicity against CHOK1 cells after 24 hrs by MTT assay; format: cell-based; details: Cricetulus griseus, CHO-K1, 24 h
Mycobacterium avium [9] = assay: Antimycobacterial activity against Mycobacterium avium CNCTC My 330/80 after 14 days by micromethod; format: functional; details: CNCTC My 330/80, 336 h
Mycobacterium avium [10] = assay: Antimycobacterial activity against Mycobacterium avium CNCTC My 330/80 after 21 days by micromethod; format: functional; details: CNCTC My 330/80, 504 h

SMILES	MIC99 [1] [µM]	MIC99 [2] [µM]	MIC99 (Mycobacterium kansasii [3]) [µM]	MIC99 (Mycobacterium kansasii [4]) [µM]	MIC99 (Mycobacterium kansasii [5]) [µM]	MIC99 (Mycobacterium kansasii [6]) [µM]	MIC99 (Mycobacterium kansasii [7]) [µM]	MIC99 (Mycobacterium kansasii [8]) [µM]	IC50 (CHO-K1) [µM]	MIC99 (Mycobacterium avium [9]) [µM]	MIC99 (Mycobacterium avium [10]) [µM]
O=[N+]([O-])c1cc(-c2nnn(CSc3nnnn3-c3ccc(Br)cc3)n2)cc([N+](=O)[O-])c1	0.03 (≈ 0.0152 µg/mL)	0.03 (≈ 0.0152 µg/mL)	0.125 (≈ 0.0632 µg/mL)	0.25 (≈ 0.126 µg/mL)	0.5 (≈ 0.253 µg/mL)	0.06 (≈ 0.0303 µg/mL)	0.125 (≈ 0.0632 µg/mL)	0.25 (≈ 0.126 µg/mL)	29		
Cn1nnc(-c2cc([N+](=O)[O-])cc([N+](=O)[O-])c2)n1	32 (≈ 8.01 µg/mL)	32 (≈ 8.01 µg/mL)	62.5 (≈ 15.6 µg/mL)	125 (≈ 31.3 µg/mL)	125 (≈ 31.3 µg/mL)	62.5 (≈ 15.6 µg/mL)	62.5 (≈ 15.6 µg/mL)	62.5 (≈ 15.6 µg/mL)		62.5 (≈ 15.6 µg/mL)	125 (≈ 31.3 µg/mL)
COc1ccccc1-n1nnnc1SCn1nnc(-c2cc([N+](=O)[O-])cc([N+](=O)[O-])c2)n1	0.25 (≈ 0.114 µg/mL)	0.25 (≈ 0.114 µg/mL)	32 (≈ 14.6 µg/mL)	32 (≈ 14.6 µg/mL)	32 (≈ 14.6 µg/mL)	32 (≈ 14.6 µg/mL)	32 (≈ 14.6 µg/mL)	32 (≈ 14.6 µg/mL)		32 (≈ 14.6 µg/mL)	32 (≈ 14.6 µg/mL)
O=[N+]([O-])c1cc(-c2nnn(Cc3cccc(F)c3)n2)cc([N+](=O)[O-])c1	1 (≈ 0.344 µg/mL)	1 (≈ 0.344 µg/mL)	1 (≈ 0.344 µg/mL)	2 (≈ 0.689 µg/mL)	2 (≈ 0.689 µg/mL)	0.5 (≈ 0.172 µg/mL)	1 (≈ 0.344 µg/mL)	2 (≈ 0.689 µg/mL)	315	8 (≈ 2.75 µg/mL)	16 (≈ 5.51 µg/mL)
O=[N+]([O-])c1cc(-c2nnn(CCCCSc3nnnn3-c3ccc(Cl)c(Cl)c3)n2)cc([N+](=O)[O-])c1	0.25 (≈ 0.134 µg/mL)	0.25 (≈ 0.134 µg/mL)	0.5 (≈ 0.269 µg/mL)	1 (≈ 0.537 µg/mL)	1 (≈ 0.537 µg/mL)	0.5 (≈ 0.269 µg/mL)	1 (≈ 0.537 µg/mL)	1 (≈ 0.537 µg/mL)		2 (≈ 1.07 µg/mL)	4 (≈ 2.15 µg/mL)
O=[N+]([O-])c1cc(-c2nnn(CCSc3nnnn3-c3ccc(Br)cc3)n2)cc([N+](=O)[O-])c1	0.5 (≈ 0.26 µg/mL)	0.5 (≈ 0.26 µg/mL)	0.5 (≈ 0.26 µg/mL)	1 (≈ 0.519 µg/mL)	1 (≈ 0.519 µg/mL)	1 (≈ 0.519 µg/mL)	1 (≈ 0.519 µg/mL)	1 (≈ 0.519 µg/mL)		2 (≈ 1.04 µg/mL)	2 (≈ 1.04 µg/mL)
O=[N+]([O-])c1cc(-c2nnn(Cc3cc(F)cc(F)c3)n2)cc([N+](=O)[O-])c1	0.25 (≈ 0.0906 µg/mL)	5 (≈ 1.81 µg/mL)	1 (≈ 0.362 µg/mL)	2 (≈ 0.725 µg/mL)	4 (≈ 1.45 µg/mL)	1 (≈ 0.362 µg/mL)	2 (≈ 0.725 µg/mL)	4 (≈ 1.45 µg/mL)		8 (≈ 2.9 µg/mL)	16 (≈ 5.8 µg/mL)
O=[N+]([O-])c1cc(-c2nnnn2Cc2ccc(Cl)cc2)cc([N+](=O)[O-])c1	4 (≈ 1.44 µg/mL)	4 (≈ 1.44 µg/mL)	8 (≈ 2.89 µg/mL)	16 (≈ 5.77 µg/mL)	16 (≈ 5.77 µg/mL)	4 (≈ 1.44 µg/mL)	8 (≈ 2.89 µg/mL)	8 (≈ 2.89 µg/mL)		16 (≈ 5.77 µg/mL)	16 (≈ 5.77 µg/mL)
O=[N+]([O-])c1cc(-c2nnn(Cc3c(F)cccc3Cl)n2)cc([N+](=O)[O-])c1	0.5 (≈ 0.189 µg/mL)	0.5 (≈ 0.189 µg/mL)	0.5 (≈ 0.189 µg/mL)	1 (≈ 0.379 µg/mL)	1 (≈ 0.379 µg/mL)	0.5 (≈ 0.189 µg/mL)	1 (≈ 0.379 µg/mL)	1 (≈ 0.379 µg/mL)		4 (≈ 1.51 µg/mL)	8 (≈ 3.03 µg/mL)
O=[N+]([O-])c1cc(Sc2nnnn2-c2ccccc2)cc([N+](=O)[O-])c1	2 (≈ 0.689 µg/mL)	4 (≈ 1.38 µg/mL)	8 (≈ 2.75 µg/mL)	8 (≈ 2.75 µg/mL)	16 (≈ 5.51 µg/mL)	4 (≈ 1.38 µg/mL)	8 (≈ 2.75 µg/mL)	8 (≈ 2.75 µg/mL)		16 (≈ 5.51 µg/mL)	16 (≈ 5.51 µg/mL)
CCCn1nnc(-c2cc([N+](=O)[O-])cc([N+](=O)[O-])c2)n1	8 (≈ 2.23 µg/mL)	16 (≈ 4.45 µg/mL)	16 (≈ 4.45 µg/mL)	32 (≈ 8.9 µg/mL)	32 (≈ 8.9 µg/mL)	16 (≈ 4.45 µg/mL)	32 (≈ 8.9 µg/mL)	32 (≈ 8.9 µg/mL)		32 (≈ 8.9 µg/mL)	62.5 (≈ 17.4 µg/mL)
O=[N+]([O-])c1cc(-c2nnn(Cc3ccc(Cl)c(Cl)c3)n2)cc([N+](=O)[O-])c1	0.125 (≈ 0.0494 µg/mL)	0.125 (≈ 0.0494 µg/mL)	0.25 (≈ 0.0988 µg/mL)	0.5 (≈ 0.198 µg/mL)	1 (≈ 0.395 µg/mL)	0.25 (≈ 0.0988 µg/mL)	0.5 (≈ 0.198 µg/mL)	0.5 (≈ 0.198 µg/mL)	37	4 (≈ 1.58 µg/mL)	8 (≈ 3.16 µg/mL)
CCCCCCCCCCCCCCCCn1nnnc1SCn1nnc(-c2cc([N+](=O)[O-])cc([N+](=O)[O-])c2)n1	4 (≈ 2.3 µg/mL)	8 (≈ 4.6 µg/mL)	16 (≈ 9.2 µg/mL)	32 (≈ 18.4 µg/mL)	32 (≈ 18.4 µg/mL)	8 (≈ 4.6 µg/mL)	16 (≈ 9.2 µg/mL)	32 (≈ 18.4 µg/mL)		125 (≈ 71.8 µg/mL)	250 (≈ 144 µg/mL)
O=[N+]([O-])c1cc(-c2nnn(CCCSc3nnnn3-c3ccc(Cl)c(Cl)c3)n2)cc([N+](=O)[O-])c1	0.25 (≈ 0.131 µg/mL)	0.25 (≈ 0.131 µg/mL)	0.25 (≈ 0.131 µg/mL)	0.5 (≈ 0.262 µg/mL)	0.5 (≈ 0.262 µg/mL)	0.25 (≈ 0.131 µg/mL)	0.5 (≈ 0.262 µg/mL)	0.5 (≈ 0.262 µg/mL)		4 (≈ 2.09 µg/mL)	8 (≈ 4.19 µg/mL)
